Biological target: T1, PPARγ D174A (Homo sapiens, UniProt P37231, D174A)
T1 construct: host or cells: 293T
Test: Gel-based competitive IC50 determination in 293T lysates: D174A PPARγ
Type: binding
Settings: D174A PPARγ expressed in 293T cells, lysate, 1 h, then 10 μM 24c-Cy3
Text: Finally, we sought to understand the molecular basis for PPARγ binding by the synthetic analogues of deoxyelephantopin through identification of the precise covalently modified amino acid site. There is literature precedent for oxidized fatty acids containing an α,β-unsaturated ketone to form a covalent bond with a cysteine in the ligand-binding site of PPARγ[53]. More recently, synthetic ligands binding reversibly to a distinct site were identified. […] Bearing in mind that the structurally simplified, and thus less prone to MS/MS fragmentation, probe 23c binds PPARγ as efficiently as 24c (Supplementary Fig. 13), we treated the recombinant nuclear receptor with the former compound, digested the protein and analysed the resulting peptides by LC–MS/MS. […]
Supplementary figure 21: Top: Fluorescence gels corresponding to the IC50 curves presented in the main text Figure 8b. γ fluorescence signal in percentage after 19a treatment. […]
Biological materials. […] Protein concentration was determined using the Bradford assay (Bio-Rad).
Cell culture and preparation of lysates. […] Cells were lysed by sonication to form cell lysates and protein concentration was determined using the Bradford […]

T1 sequence (P37231 whole entry D174A): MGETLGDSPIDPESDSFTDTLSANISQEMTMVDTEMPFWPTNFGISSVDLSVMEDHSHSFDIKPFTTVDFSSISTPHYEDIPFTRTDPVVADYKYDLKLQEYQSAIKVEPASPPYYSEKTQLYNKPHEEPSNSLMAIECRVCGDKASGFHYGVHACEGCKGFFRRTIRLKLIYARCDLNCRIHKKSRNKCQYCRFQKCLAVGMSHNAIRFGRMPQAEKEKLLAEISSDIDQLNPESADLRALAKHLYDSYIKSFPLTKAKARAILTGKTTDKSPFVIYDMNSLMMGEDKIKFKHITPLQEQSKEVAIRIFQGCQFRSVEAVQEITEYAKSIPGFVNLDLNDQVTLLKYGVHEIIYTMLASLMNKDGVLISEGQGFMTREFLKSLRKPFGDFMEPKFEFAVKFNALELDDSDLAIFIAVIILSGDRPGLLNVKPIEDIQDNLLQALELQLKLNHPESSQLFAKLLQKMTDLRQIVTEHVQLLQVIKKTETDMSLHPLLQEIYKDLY

## C=C(C)C(=O)O[C@H]1CC2=C[C@H](C/C=C\[C@H]3OC(=O)C(=C)[C@H]13)OC2=O [19a]
  IC50: 58 µM

— paper PMC4992173, “Divergent synthesis and identification of the cellular targets of deoxyelephantopins” (Nature Communications, 2016)
